{"source": "paper PMC7567314", "about": "(Science (New York, N.Y.), 2020)", "key": {"[1]": {"system": "untransfected HEK293 cells (adenylyl cyclase)", "experiment": "Forskolin cAMP concentration-response with or without Ca2+", "assay_type": "cell-based, human", "settings": "0.5 mM CaCl2"}, "[2]": {"biological_target": "wild-type MC4R stably expressed in HEK293 cells (Homo sapiens, UniProt P32245)", "sequence (P32245 whole entry)": "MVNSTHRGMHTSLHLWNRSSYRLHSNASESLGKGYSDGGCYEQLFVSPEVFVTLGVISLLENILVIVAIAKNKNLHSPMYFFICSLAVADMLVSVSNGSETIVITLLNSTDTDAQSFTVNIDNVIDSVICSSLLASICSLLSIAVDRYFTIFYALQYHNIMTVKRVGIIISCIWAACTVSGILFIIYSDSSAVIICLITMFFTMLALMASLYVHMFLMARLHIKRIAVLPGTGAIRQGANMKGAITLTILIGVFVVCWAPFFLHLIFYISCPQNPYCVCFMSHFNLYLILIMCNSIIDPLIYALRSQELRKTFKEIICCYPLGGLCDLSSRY", "assay_type": "binding", "settings": "10 μM Ca2+; wild-type receptor; against 80 pM 125I-NDP-MSH"}}}
{"molecule": "C=C[C@@]1(C)CC(=O)[C@]2(O)[C@@]3(C)[C@@H](O)CCC(C)(C)[C@@H]3[C@H](O)[C@H](OC(C)=O)[C@@]2(C)O1", "note": "[forskolin]", "values": [{"measurement": "Ca2+ dependence of non-receptor-mediated activation of adenylyl cyclase", "setting": "[1]", "value": "no Ca^2+ dependence"}]}
{"molecule": "agouti-related protein (SSRRCVRLHESCLGQQVPCCDPCATCYCRFFNAFCYCRKLGTAMNPCSRT; UniProt O00253 83-132, looked up, fragment) [AgRP]", "values": [{"measurement": "effect of Ca2+ on Ki", "setting": "[2]", "value": "only marginally lowered"}]}
